Among the data in paper PMC8094182, “8-Substituted Triazolobenzodiazepines: In Vitro and In Vivo Pharmacology in Relation to Structural Docking at the α1 Subunit-Containing GABAA Receptor” (Frontiers in Pharmacology, 2021) are Ki and EC50 values, retold here.

For assay [1], the target named is T1, rat α5β3γ2 GABAA receptor (α5GABAA) (Rattus norvegicus, UniProt P18508+P19969).
T1 construct: gene Gabra5; Full-length subunits co-expressed; pentamer; with Gamma-aminobutyric acid receptor subunit beta-3
Put plainly: [3H]flunitrazepam displacement, HEK […] membranes, filtration. To be noted: read-out: α5. It is filed as binding.

Assay [2] concerns the target T2, rat α2β3γ2 GABAA receptor (α2GABAA) (Rattus norvegicus, UniProt P18508+P23576).
T2 construct: gene Gabra2; Full-length subunits co-expressed; pentamer; with Gamma-aminobutyric acid receptor subunit beta-3
In words: two-electrode voltage clamp, Xenopus oocytes, potentiation of GABA EC3 current. It counts as cell-based. To be noted: read-out: α2. The source says: two-electrode voltage clamp, Xenopus oocytes, potentiation of GABA EC3 current on rat α2β3γ2 GABAA receptor (α2GABAA)
(Two-electrode voltage clamp holds a large cell at a set potential and records current.)

Assay [3] deals with T3, rat α1β3γ2 GABAA receptor (α1GABAA) (Rattus norvegicus, UniProt P18508+P62813).
T3 construct: gene Gabra1; Full-length subunits co-expressed; pentamer; with Gamma-aminobutyric acid receptor subunit beta-3
The assay is described as above. It counts as cell-based. To be noted: read-out: α1. The source says:
two-electrode voltage clamp, Xenopus oocytes, potentiation of GABA EC3 current on rat α1β3γ2 GABAA receptor (α1GABAA)

For assay [4], the target named is T4, rat α3β3γ2 GABAA receptor (α3GABAA) (Rattus norvegicus, UniProt P18508+P20236).
T4 construct: gene Gabra3; Full-length subunits co-expressed; pentamer; with Gamma-aminobutyric acid receptor subunit beta-3
Put plainly: [3H]flunitrazepam displacement, HEK […] membranes, filtration. It counts as binding. Conditions: read-out: α3.

Assay [5] has as its target T3, rat α1β3γ2 GABAA receptor (α1GABAA). The assay is described as above. It is filed as binding. To be noted: read-out: α1.
Assay [6] addresses T4, rat α3β3γ2 GABAA receptor (α3GABAA). Put plainly: two-electrode voltage clamp, Xenopus oocytes, potentiation of GABA EC3 current. Conditions: read-out: α3. It counts as cell-based. The text has this: two-electrode voltage clamp, Xenopus oocytes, potentiation of GABA EC3 current on rat α3β3γ2 GABAA receptor (α3GABAA)
In assay [7] the target is T1, rat α5β3γ2 GABAA receptor (α5GABAA). Described as above. It counts as cell-based. To be noted: read-out: α5. The source says:
two-electrode voltage clamp, Xenopus oocytes, potentiation of GABA EC3 current on rat α5β3γ2 GABAA receptor (α5GABAA)

Assay [8] addresses T2, rat α2β3γ2 GABAA receptor (α2GABAA). Put plainly: [3H]flunitrazepam displacement, HEK […] membranes, filtration. It counts as binding. To be noted: read-out: α2.

T3 sequence (P62813 28-455): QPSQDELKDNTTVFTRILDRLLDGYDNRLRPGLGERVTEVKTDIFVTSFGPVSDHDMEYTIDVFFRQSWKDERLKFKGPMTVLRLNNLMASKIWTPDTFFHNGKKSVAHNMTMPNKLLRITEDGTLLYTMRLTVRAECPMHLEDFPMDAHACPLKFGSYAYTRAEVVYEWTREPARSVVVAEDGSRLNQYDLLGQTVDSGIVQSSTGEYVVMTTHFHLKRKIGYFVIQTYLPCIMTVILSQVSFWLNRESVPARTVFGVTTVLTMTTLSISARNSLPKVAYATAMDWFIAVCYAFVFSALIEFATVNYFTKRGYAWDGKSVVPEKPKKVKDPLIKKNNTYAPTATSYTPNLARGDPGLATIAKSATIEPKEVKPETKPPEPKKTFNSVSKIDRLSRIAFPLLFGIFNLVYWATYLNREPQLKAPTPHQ
T3 sequence (P18508 39-466): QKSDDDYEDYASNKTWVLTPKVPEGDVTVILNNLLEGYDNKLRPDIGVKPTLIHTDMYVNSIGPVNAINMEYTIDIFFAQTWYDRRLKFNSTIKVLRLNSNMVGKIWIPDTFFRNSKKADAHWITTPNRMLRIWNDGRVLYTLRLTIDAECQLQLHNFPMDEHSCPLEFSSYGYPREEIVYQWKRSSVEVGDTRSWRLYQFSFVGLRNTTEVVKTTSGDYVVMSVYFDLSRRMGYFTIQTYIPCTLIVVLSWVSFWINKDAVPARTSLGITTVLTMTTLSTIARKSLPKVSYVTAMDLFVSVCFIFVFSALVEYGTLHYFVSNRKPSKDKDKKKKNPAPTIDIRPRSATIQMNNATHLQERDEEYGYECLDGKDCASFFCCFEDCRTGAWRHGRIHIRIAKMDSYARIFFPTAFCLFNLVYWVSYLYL
T3 sequence (P63079 26-473 partner): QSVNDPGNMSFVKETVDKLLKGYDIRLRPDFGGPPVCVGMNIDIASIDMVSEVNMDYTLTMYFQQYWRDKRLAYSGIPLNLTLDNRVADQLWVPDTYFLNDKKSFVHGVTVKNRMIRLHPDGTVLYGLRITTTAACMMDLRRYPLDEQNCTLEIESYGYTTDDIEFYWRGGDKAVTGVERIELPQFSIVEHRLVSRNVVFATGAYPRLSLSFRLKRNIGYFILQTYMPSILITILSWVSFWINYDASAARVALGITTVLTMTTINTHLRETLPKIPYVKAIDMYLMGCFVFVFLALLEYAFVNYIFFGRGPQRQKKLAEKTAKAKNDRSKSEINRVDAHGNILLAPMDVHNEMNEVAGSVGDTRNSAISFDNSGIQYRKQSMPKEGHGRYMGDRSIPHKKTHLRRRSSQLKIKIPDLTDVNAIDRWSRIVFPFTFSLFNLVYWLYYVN
T4 sequence (P20236 29-493): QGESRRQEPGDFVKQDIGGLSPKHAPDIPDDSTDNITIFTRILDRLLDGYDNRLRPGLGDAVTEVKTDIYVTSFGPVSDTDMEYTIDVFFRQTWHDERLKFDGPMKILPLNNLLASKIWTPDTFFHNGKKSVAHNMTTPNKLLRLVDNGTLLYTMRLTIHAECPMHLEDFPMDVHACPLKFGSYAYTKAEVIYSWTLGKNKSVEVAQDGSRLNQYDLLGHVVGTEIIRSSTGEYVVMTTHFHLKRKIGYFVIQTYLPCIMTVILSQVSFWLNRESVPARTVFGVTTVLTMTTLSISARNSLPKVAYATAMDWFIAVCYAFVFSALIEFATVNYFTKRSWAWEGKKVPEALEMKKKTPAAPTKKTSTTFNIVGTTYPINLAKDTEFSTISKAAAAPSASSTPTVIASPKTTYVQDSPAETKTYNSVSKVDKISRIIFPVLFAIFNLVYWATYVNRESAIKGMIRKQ
T4 sequence (P18508 39-466): as the sequence (P18508 39-466) above
T4 sequence (P63079 26-473 partner): as the sequence (P63079 26-473 partner) above
T1 sequence (P19969 26-464): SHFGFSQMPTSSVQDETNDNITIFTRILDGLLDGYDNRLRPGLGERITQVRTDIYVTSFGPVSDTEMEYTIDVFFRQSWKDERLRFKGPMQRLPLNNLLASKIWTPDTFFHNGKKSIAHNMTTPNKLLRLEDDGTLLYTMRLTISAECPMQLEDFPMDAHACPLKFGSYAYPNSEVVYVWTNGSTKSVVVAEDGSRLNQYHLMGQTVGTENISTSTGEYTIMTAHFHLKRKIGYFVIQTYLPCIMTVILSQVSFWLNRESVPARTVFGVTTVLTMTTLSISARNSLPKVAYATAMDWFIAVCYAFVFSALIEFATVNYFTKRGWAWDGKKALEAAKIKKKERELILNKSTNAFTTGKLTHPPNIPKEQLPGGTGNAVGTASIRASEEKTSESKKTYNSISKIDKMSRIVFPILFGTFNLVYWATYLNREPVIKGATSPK
T1 sequence (P18508 39-466): as the sequence (P18508 39-466) above
T1 sequence (P63079 26-473 partner): as the sequence (P63079 26-473 partner) above
T2 sequence (P23576 29-451): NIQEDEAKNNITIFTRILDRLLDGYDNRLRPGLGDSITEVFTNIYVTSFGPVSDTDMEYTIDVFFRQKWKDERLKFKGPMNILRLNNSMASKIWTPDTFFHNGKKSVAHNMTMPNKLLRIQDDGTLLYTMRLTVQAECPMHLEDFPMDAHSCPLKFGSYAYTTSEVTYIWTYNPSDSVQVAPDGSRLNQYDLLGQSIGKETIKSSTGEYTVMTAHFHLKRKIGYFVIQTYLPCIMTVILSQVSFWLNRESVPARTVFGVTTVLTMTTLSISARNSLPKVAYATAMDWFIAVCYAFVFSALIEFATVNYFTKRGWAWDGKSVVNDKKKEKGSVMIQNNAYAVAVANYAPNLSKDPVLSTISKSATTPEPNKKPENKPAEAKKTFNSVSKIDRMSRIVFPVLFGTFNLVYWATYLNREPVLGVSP
T2 sequence (P18508 39-466): as the sequence (P18508 39-466) above
T2 sequence (P63079 26-473 partner): as the sequence (P63079 26-473 partner) above

With `C#Cc1ccc2c(c1)C(c1ccccc1Cl)=NCc1nnc(C)n1-2` [XLi-JY-DMH, 6-(2-chlorophenyl)-8-ethynyl-1-methyl-4H-benzo [f][1,2,4]triazolo[4,3-a][1,4]diazepine], the Ki in assay [1] amounted to 3.8 ± 1 nM; in assay [4] it was 4.2 ± 1.6 nM; in assay [5], 7.7 ± 5.5 nM; in assay [8] it was 7.2 ± 3 nM. In addition, the EC50 in assay [2] came to 20.7 nM; in assay [3], 35.2 nM; in assay [6], 47 nM; in assay [7], 14.9 nM.
